Laboratory results published in PMC7355964, “Enhancement in Oral Absorption of Ceftriaxone by Highly Functionalized Magnetic Iron Oxide Nanoparticles” (Pharmaceutics, 2020).
Entries after “also recorded” stand apart in the source; their conditions may differ.

What was measured:
[1] = parameters: method as in PMID 23143633; conditions: ref [35]; cited from earlier work
[2] = In vivo oral pharmacokinetics studies; parameters: species or system Rabbits (Oryctolaguscuniculus); conditions: rabbit, oral CFT aqueous solution
Procedure: The availability of CFT and internal standard cephalexin (CEP) in plasma was determined through reverse phase HPLC protocol developed and validated in our laboratories. The protein precipitation method was taken into account for extracting drug from plasma. Plasma (200 µL) containing both drugs was blended and vortexed with ACN (400 µL) for 2 min and the precipitate was separated by centrifugation at 15,483 G for 10 min. The acquired supernatant was concentrated in vacuum and reconstituted in buffer (TBAH, 100 µL; pH 7.0). A volume of 25 µL was injected into the HPLC system Shimadzu, LC20A (Shimadzu, Kyoto, Japan) equipped with a purospher C18 (5 µm, 250 × 4.6 mm) column. The mobile phase was comprised of ACN and TBAH buffer (0.005 M, pH 7.0) in a ratio of 25:75. The flow rate was adjusted to 1 mL/min, and the wavelength selected was 220 nm.
Animal studies were conducted under institutional guidelines by following the principals of institutional animal care. The studies were approved by the Ethics Committee of International Center for Chemical and Biological Sciences, University of Karachi (Project identification code ICCBS/CBSCR/IEC-014/2018; approved date 06-04-2018). All animals were healthy and purchased for Dow University of Health Sciences OJHA campus Karachi, Pakistan. Rabbits (Oryctolaguscuniculus) with 1.2 kg normal body weight were chosen for the assessment of oral in vivo pharmacokinetics studies. Rabbits were held under standard quarantine conditions with free access to food and water for 12 h. Before conducting the in vivo studies, rabbits were kept under fasting conditions but with free access to water. Rabbits were divided into three distinct categories (n = 4). The first category was given CFT-MIH-MNPs suspension at 25 mg/kg body weight portion. Rabbits of the second and third categories were provided with CFT in oral aqueous solution at 25 and 50 mg/kg body weight. Blood samples (1mL) were collected via marginal ear vein using an insulin plastic syringe at various intervals within 24 h. After centrifugation at 2688 G for 10 min, plasma was acquired and stored at –20 °C. Pharmacokinetics parameters were assessed by linear trapezoidal standard using a non-compartmental model from individual drug plasma concentrations with reference to a time curve for CFT after oral administration of nanoformulation and controls separately. The estimations of maximum drug plasma concentration (Cmax) and time to reach maximum plasma concentration (Tmax) were obtained from the drug plasma concentration curves. These parameters were utilized to ascertain the pharmacokinetics parameters area under the curve from zero to last quantifiable value (AUC0-24), mean residence time (MRT) and clearance (Cl).

Cmax ([2]; albino, plasma, 50 mg/kg): 2000 ± 600 ng/mL
MRT ([2]; albino, plasma, 50 mg/kg): 8.4 ± 0.1 h
Tmax ([2]; albino, plasma, 50 mg/kg): 1.5 h
AUC(0-t) ([2]; albino, plasma, 50 mg/kg, read-out: AUC0-24): 16100 ± 3700 ng·h/mL
Clearance ([2]; 50 mg/kg): 3.91 ± 0.4 L/h
Volume distribution ([2]; 50 mg/kg): 33.0 ± 1.94 L
Clearance ([2]; 50 mg/kg, listed as CFT Solution): 3.9 ± 0.4 L/h
Compound: CO/N=C(\C(=O)N[C@@H]1C(=O)N2C(C(=O)O)=C(CSc3nc(=O)c(=O)[nH]n3C)CS[C@H]12)c1csc(N)n1 [CFT, Ceftriaxone]
pH (early neutral pH) [1]: about 6.7
CFT detection in blood plasma (HPLC) ([2]; 25 mg/kg): no drug was detected; also recorded: no detection of CFT in the blood plasma
